Results taken from paper PMC7731115, “Cytotoxic, Apoptosis-Inducing Activities, and Molecular Docking of a New Sterol from Bamboo Shoot Skin Phyllostachys heterocycla var. pubescens” (Molecules, 2020).
Values joined by “and” are separate entries in the source; they are usually repeats but may differ in a detail not shown here. Equal entries are not always repeated. Where two headings read alike, the source gives them in different places.

How the values were obtained:
MCF-7 cancer cells [1] = assay: Annexin V/PI flow cytometric apoptosis/necrosis assessment; format: cell-based, human; settings: MCF-7, treated at IC50 = 25.92 μM, 48 h
Text: (§1) Moreover, MCF-7 cancer cells after compound 1 treatment were subjected to DNA flow cytometry to analyse the cell cycle kinetics to determine the compound’s phase interference with the cell cycle. The study of the cell cycle is a crucial test showing the cell accumulation percentage in each growth phase with cytotoxic substances after treatment. […] Consequently, compound 1 induced pre-G1 and G2/M-phase cell cycle arrest and blocked the progression of MCF-7 cancer cells that deteriorated the genetic material.
(§2) Cell cycle analysis, as well as apoptotic assays, were performed in detail according to the previously described methods. Full methodologies of flow cytometric assays were provided in the Supplementary File.

BAX = assay: RT-PCR mRNA expression in MCF-7 cells, BAX; format: cell-based, human; settings: MCF-7, treated at IC50 = 25.92 μM, 48 h
Method: (§3) The results are in accordance with the proposed apoptotic pathway for anticancer activity.
(§4) At the end of treatments, cells were collected, and total RNA was extracted using a RNeasy® Mini Kit (Qiagen, Hilden, Germany) according to the manufacturer’s instructions. cDNA synthesis was performed with 500 ng of RNA using the i-Script cDNA synthesis kit (Bio-Rad, Hercules, CA, USA) following the manufacturer’s instructions. Real-time (RT)-PCR reactions consisted of 25-µL Fluocycle®II SYBR® (Euroclone, Milan, Italy), 1.5 µL of both 10-µM forward and reverse primers, 3-µL cDNA, and 19 µL of H2O. All reactions were performed for 35 cycles using this temperature profile: 95 °C for 5 m (initial denaturation); 95 °C for […] (Denaturation), 55 °C for […] (Annealing), and 72 °C for […] (Extension). Then, The cycle threshold (Ct) values were collected and the relative folds of changes between all the samples. Primer used were listed in the Supplementary Files.

P53 gene = assay: RT-PCR mRNA expression in MCF-7 cells, P53; format: cell-based, human; settings: MCF-7, treated at IC50 = 25.92 μM, 48 h
Method: as §3, §4

caspase 9 = assay: RT-PCR mRNA expression in MCF-7 cells, caspase 9; format: cell-based, human; settings: MCF-7, treated at IC50 = 25.92 μM, 48 h
Method: as §3, §4

MCF-7 cancer cells [2] = assay: DNA content flow cytometry cell cycle analysis; format: cell-based, human; settings: MCF-7, treated at IC50 = 25.92 μM, 48 h
Text: as §1, §2

antiapoptotic Bcl-2 gene = assay: RT-PCR mRNA expression in MCF-7 cells, Bcl-2; format: cell-based, human; settings: MCF-7, treated at IC50 = 25.92 μM, 48 h
Method: as §3, §4

HepG2 = assay: MTT cytotoxic assay, HepG2; format: cell-based; settings: Homo sapiens, read-out: IC50 ± SD HepG2
Method: (§5) Crude extracts, in addition to six sterol compounds, were screened for their cytotoxic activities against four cancerous cell lines: HepG2, Hela, A549, and MCF-7 and a noncancerous breast (MCF-10A) cell line to test their safety using the MTT assay (Table 2). […] After fractionation and isolation of the pure compounds, six compounds were tested for their cytotoxicity. […] Additionally, it was safe against the normal cells, with IC50 ≥ 50.
(§6) Crude extract, together with six of the identified sterols, were screened for their cytotoxic activities against liver HepG2, breast MCF-7, and normal cells (MCF-10A), as well. According to the standard cell culture work, each cell line was cultured in a proper complete medium. The treatment of cells was performed with the crude extract and then, with the identified compounds for a 48-h incubation, and Fluorouracil (5-FU) was used as the standard. Percent of cell viability was calculated by the following formula: % cell viability = (Mean absorbance of tested compound)/(Mean absorbance in control) × 100. Then, IC50 in µM was calculated using GraphPad Prism 7.

caspase 3 = assay: RT-PCR mRNA expression in MCF-7 cells, caspase 3; format: cell-based, human; settings: MCF-7, treated at IC50 = 25.92 μM, 48 h
Method: as §3, §4

caspase 8 = assay: RT-PCR mRNA expression in MCF-7 cells, caspase 8; format: cell-based, human; settings: MCF-7, treated at IC50 = 25.92 μM, 48 h
Method: as §3, §4

Normal Cells MCF-10A = assay: MTT cytotoxic assay, normal cells MCF-10A; format: cell-based; settings: Homo sapiens, pure compounds, 48-h incubation, n = 3, read-out: IC50 ± SD Normal Cells MCF-10A
Method: as §5, §6

MCF-7 = assay: MTT cytotoxic assay, MCF-7; format: cell-based, human
Method: as §5, §6

A549 = assay: MTT cytotoxic assay, A549; format: cell-based; settings: Homo sapiens, read-out: IC50 ± SD A549
Method: as §5, §6

Hela = assay: MTT cytotoxic assay, Hela; format: cell-based; settings: Homo sapiens
Method: as §5, §6

[3] = HepG2, pure compounds, MTT, 48-h incubation, n = 3
[4] = Homo sapiens, MCF7, 48 h, pure compounds, MTT, 48-h incubation, n = 3, read-out: IC50 ± SD MCF-7
[5] = A549, pure compounds, MTT, 48-h incubation, n = 3
[6] = pure compounds, MTT, 48-h incubation, n = 3, read-out: IC50 ± SD Hela

CCCCCC/C=C\C/C=C\CCCCCCC(=O)OC[C@H]1O[C@@H](O[C@H]2CCC3(C)C(=CCC4C3CCC3(C)C(C(C)CCC(CC)C(C)C)CCC43)C2)[C@H](O)[C@@H](O)[C@@H]1O (stereo partly drawn) [Compound 1, (6’-O-octadeca-8″,11″-dienoyl)-sitosterol-3-O-β-D-glucoside]
apoptotic cell death, fold vs control (MCF-7 cancer cells [1]): 32.6 fold
cell death via necrosis, fold vs control (MCF-7 cancer cells [1]): 10.8 fold
apoptotic cell death, total apoptosis (MCF-7 cancer cells [1]; control 0.51%): 16.63%
cell death via necrosis (MCF-7 cancer cells [1]; control 0.86%): 9.31%
BAX mRNA level, fold change (BAX): 3.77 fold and 3.77± 0.37 fold
P53 gene mRNA level, fold change (P53 gene): ≈ 3.55 fold and 3.55± 0.28 fold
caspase 9 mRNA level, fold change (caspase 9): 5.44 fold and 5.44± 0.49 fold
pre-G1 cell population (MCF-7 cancer cells [2]; control 1.37%): 25.94%
G2/M cell population (MCF-7 cancer cells [2]; control 7.46%): 26.74%
cell population in S (MCF-7 cancer cells [2]; control 34.26%): 24.95%
Bcl-2 mRNA level, fold change (antiapoptotic Bcl-2 gene): ≈ 0.81 fold and 0.81± 0.05 fold
IC50 (HepG2; [3]): 27.5 ± 1.04 µM
caspase 3 mRNA level, fold change (caspase 3): ≈ 5.01 fold and 5.01± 0.27 fold
caspase 8 mRNA level, fold change (caspase 8): 1.9 fold and 1.9± 0.13 fold
IC50 (Normal Cells MCF-10A): ≥ 50 µM
IC50 (MCF-7; [4]): 25.8 µM
LogIC50 (Figure 4 curve fit) (MCF-7; MCF-7, nonlinear regression dose-inhibition curve fit): 1.412
IC50 (MCF-7; pure compounds, MTT, 48-h incubation, n = 3, read-out: IC50 ± SD MCF-7): 25.8 ± 1.04 µM

CC[C@H](CC[C@@H](C)[C@H]1CC[C@H]2[C@@H]3CCC4=CC(=O)CC[C@]4(C)[C@H]3CC[C@]12C)C(C)C [Compound 2, stigmast-4-en-3-one]
IC50 (A549; A549, 48 h): 45.6 ± 0.75 µM
IC50 (Normal Cells MCF-10A): ≥ 50 µM
IC50 (Hela; 48 h, read-out: IC50 ± SD Hela): 32.5 ± 0.89 µM
IC50 (MCF-7; Homo sapiens, MCF7, 48 h, read-out: IC50 ± SD MCF-7, pure compounds, MTT, 48-h incubation, n = 3): ≥ 50 µM

CCC(CC[C@@H](C)[C@H]1CC[C@H]2[C@@H]3CC(O)C4=CC(=O)CC[C@]4(C)[C@H]3CC[C@]12C)C(C)C (stereo partly drawn) [Compound 3, 6-β-hydroxy-24-ethyl-cholest-4-en-3-one]
IC50 (A549; [5]): 49.9 ± 1.03 µM
IC50 (Normal Cells MCF-10A): ≥ 50 µM
IC50 (Hela; [6]): ≥ 50 µM
IC50 (MCF-7; [4]): ≥ 50 µM

CC[C@H](CC[C@@H](C)[C@H]1CC[C@H]2[C@@H]3CC=C4C[C@@H](O)CC[C@]4(C)[C@H]3CC[C@]12C)C(C)C [Compound 5, β-sitosterol]
IC50 (A549; A549, 48 h): ≥ 50 µM
IC50 (HepG2; HepG2, 48 h): ≥ 50 µM
IC50 (Normal Cells MCF-10A): ≥ 50 µM
IC50 (Hela; 48 h, read-out: IC50 ± SD Hela): 42.3 ± 1.02 µM
IC50 (MCF-7; Homo sapiens, MCF7, 48 h, read-out: IC50 ± SD MCF-7): ≥ 50 µM

O=c1[nH]cc(F)c(=O)[nH]1 [Compound 5-FU, 5-fluorouracil, reference compound]
IC50 (A549; [5]): 7.47 ± 0.43 µM
IC50 (HepG2; [3]): 15.8 ± 0.28 µM
IC50 (Normal Cells MCF-10A): ≥ 50 µM
IC50 (Hela; [6]): 13 ± 0.65 µM
IC50 (MCF-7; [4]): 27 ± 0.76 µM

CCCCCCCCCCCCCCCC(=O)OCC1OC(OC2CCC3(C)C(=CCC4C3CCC3(C)C(C(C)CCC(CC)C(C)C)CCC43)C2)C(O)C(O)C1O [Compound 6, (6’-O-palmitoyl)-sitosterol-3-O-β-D-glucoside]
IC50 (HepG2; [3]): 42.5 ± 1.71 µM
IC50 (Normal Cells MCF-10A): ≥ 50 µM
IC50 (MCF-7; [4]): ≥ 50 µM

CCC(CCC(C)C1CCC2C3CC=C4CC(OC5OC(CO)C(O)C(O)C5O)CCC4(C)C3CCC12C)C(C)C [Compound 7, β-sitosterol-3-O-β-D-glucoside]
IC50 (HepG2; [3]): ≥ 50 µM
IC50 (Normal Cells MCF-10A): ≥ 50 µM
IC50 (MCF-7; [4]): 38.1 ± 0.98 µM
